Experimental data from patent publication US20250134899A1, “COMBINATION THERAPIES OF WDR5 INHIBITORS AND PD-1 INHIBITORS” (HUYABIO International, LLC, priority 2023, published 2025).

Test system: GL261-Luc cells (syngeneic orthotopic gliomas)
Test: GL261-luc intracranial orthotopic syngeneic brain (glioma) model, survival
Format: in vivo, C57BL/6J mice
Method: Female C57BL/6J mice (Beijing VR Laboratory Animal Co., LTD; 6 to 8 weeks old, approximately 18-22 g) were used for intracranial […] orthotopic glioma experiment. To establish syngeneic orthotopic gliomas, 200,000 GL261-Luc cells were stereotactically injected in a 3-μL volume of PBS mixed with 20% Matrigel into the left striatum over 1 minute, 3 mm deep from the cortical surface. Tumor burden was monitored by bioluminescence signal with IVIS imaging by injection 1.5 mg of luciferin per animal prior to imaging. On day 7 after implantation the mice were randomly allocated into treatment arms based on tumor radiance, so that the average tumor radiance in each group was approximately 8.50E+06 photon/sec (Day 0). Animals were treated for 28 days with HBI-2375 (80 mg/kg QD PO), Anti-PD-1 (RMP1-14) antibody (10 mg/kg BIW IP) and/or whole body radiation therapy (2 Gy/day×5 days) in monotherapy, doublet or triplet therapy and as described in the protocol.
The tumor take rate was 100%. Each arm had 10 mice in survival experiments. Study was terminated on Day 85.

Cc1c(F)c(N)cc(C(=O)Nc2cc(-n3cc(C(=O)N4CCN(C)CC4)nn3)c(F)cc2N2C[C@@H](C)N(C)[C@@H](C)C2)c1Cl [HBI-2375, 5-amino-2-chloro-4-fluoro-N-(4-fluoro-5-(4-(4-methylpiperazine-1-carbonyl)-1H-1,2,3-triazol-1-yl)-2-((3S,5R)-3,4,5-trimethylpiperazin-1-yl)phenyl)-3-methylbenzamide]
% Survival at Day 85 (Day 85, same dosing): 10% | Median Survival (GL261-Luc intracranial, 10 mice per arm, treated 28 days, HBI-2375 80 mg/kg QD PO, anti-PD-1 10 mg/kg BIW IP, radiation 2 Gy/day x 5 days, study terminated Day 85): 17.5 days | survival (in words) (in combination with Anti-PD-1 and Radiation, FIG. 1 legend): increases survival | Survival at Day 85 (surviving mice / mice per arm at Day 85, same dosing): 1/10
